US20110060045A1, “ANTI-DIABETIC CATARACT COMPOUNDS AND THEIR USES” (NATIONAL RESEARCH COUNCIL OF CANADA, priority 2006, published 2011)
Several values for one entry are separate records, joined by “and”; a condition that tells them apart may be missing. Equal entries are not always repeated. Where two headings read alike, the source gives them in different places.

Assays:
[1] = pKa of the aromatic dihydroxyl group; format: physicochemical
[2] = target: T1, bovine serum albumin (BSA) with D-ribose (Bos taurus, UniProt P02769); assay: Maillard fluorescence-based anti-glycation assay; settings: in vitro anti-glycation; for IC50: BSA 0.075 mM, D-ribose 50 mM, 37° C., 5 days; for Imax: maximum inhibition of Maillard fluorescence
Protocol: (§3) The Maillard fluorescence-based assay was used to screen anti-glycation activity of approximately 1,300 drugs or drug candidates. […] Briefly the assay involved incubation of bovine serum albumin (BSA) (0.075 mM) with D-ribose (50 mM) and an assay compound (0.47, 4.7 and 47 μg/mL). Solutions were incubated at 37° C. for 5 days.

human eye = settings: cited from earlier work
human eyes = settings: cited from earlier work
[3] = test system: human corneal epithelial cells (HCEC cells); settings: human cornea epithelial cells, under the microscope
Protocol: HCEC cells were grown in EpiLife medium supplemented with human corneal growth supplements (HCGS; Cascade Biologics). The cells were maintained at 37° C. in a humidified atmosphere containing 5% CO2 and the medium was changed every other day. HCEC cells were seeded onto 96-well plates at a density of approximately 10^3 cells/well and cultivated for one day. […] The medium was aspirated and the treatments were applied to the cells (in triplicates) for different incubation times (5 minutes to 2 hours and 24 hours). At the end of the incubation times, the survival of the cells was visually examined under microscope.

PC12 cells [4] = assay: Anti-oxidant activity against oxidative stress by H2O2 at the cellular level; format: cell-based; settings: 10-100 μM; H2O2 killed over 80% of the PC12 cells
From the text: Glycation includes oxidative processes and is closely related to oxidative stress. […] The oxidative stress by H2O2 induces apoptosis in vitro and in vivo, and effective anti-oxidants such as N-acetyl-cysteine reduces the oxidative stress and protects the cells from the apoptosis.

PC12 cells [5] = assay: Cytotoxicity in PC12 cells (MTT assay); format: cell-based
Protocol: The cytotoxicity of (S)-isoproterenol dipivalate was measured by using PC12 cells. […] PC12 cells were seeded onto rat-tail collagen coated 96-well plates at a density of 2×10^4 cells/well and cultivated for one day. On the day of the experiment, dilutions of (S)-isoproterenol dipivalate ranging from 100 μM to 10 mM were prepared in complete medium. […] At the end of the incubation times, the medium was aspirated and 100 μL of a solution of MTT (3-(4,5-dimethylthiazol-2-yl)-2,5-diphenyltetrazolium; 0.2 mg/ml in complete medium) was added to the cells. After incubation at 37° C. for 2 hours, MTT was removed and the colored formazan was dissolved in dimethyl sulfoxide (DMSO) (½ hour at 37° C.). Reduction was measured by colorimetric detection (595 nm) of the blue insoluble formazan product. This assay provides an estimate of the number of functioning mitochondria present in the cells; i.e. the quantity of formazan product is directly proportional to the number of metabolically active cells in the culture. The viability of PC12 cells in each well was presented as percentage of control cells.

[6] = test system: Streptozotocin-injected diabetic rats; assay: Diabetic cataract initiation and progression in Streptozotocin-injected rats, eye drops; format: in vivo, rat; settings: for Time entered in level 4 / Time stayed in level 0 / Time stayed in level 1 / Time stayed in level 2 / Time stayed in level 3: individual diabetic rats with drug; for Time entered in level 4 / Time stayed in level 0 / Time stayed in level 1 / Time stayed in level 2 / Time stayed in level 3 / Time stayed in level 0 (cataract initiation), Av ± STD / Time stayed in level 1, Av ± STD / Time stayed in level 2, Av ± STD / Time stayed in level 3, Av ± STD: hydrochloride; for Time stayed in level 0 (cataract initiation), Av ± STD / Time stayed in level 1, Av ± STD / Time stayed in level 2, Av ± STD / Time stayed in level 3, Av ± STD: diabetic rats with drug, n=17, both eyes; for Time stayed in level 0 (cataract initiation), Av ± STD: 0.10% eye drop twice a day
From the text: A rat model was used to study the effect of (S)-isoproterenol on diabetic cataract, that of streptozotocin-injection to induce diabetes by destroying the β-cells of the pancreas. This model has been widely used to study diabetes-related pathological events and their possible treatments (Dagher et al., 2004; Ben-nun et al., 2004; Chung et al., 2005). The rat model has an advantage of rapid formation of diabetic cataract such that initial cataract was observed as early as 8-9 weeks in the majority of the control diabetic rats. Two-month-old male Sprague-Dawley rats were purchased from Charles River, Canada. They were housed in the Biotechnology Research Institute (BRI)—animal facility. Housing and all experimental manipulations were approved by the BRI Animal Care Committee that functions under the guidelines of the Canadian Council of Animal Care.
(§1) The pH of the eye drop was adjusted to 5.5 with 1N—HCl. […] The eye drop was freshly prepared every month and was stored at 4° C. […] The size of each eye drop was 50 μL.
Diabetes was induced in male Sprague-Dawley rats weighing approximately 200 to 250 g by a single intraperitoneal injection of the beta-cell toxin, Streptozotocin (STZ) (Sigma, St. Louis, […].), at a dose of 60 mg/kg body weight in 0.1M citrate buffer pH 4.5. Non-diabetic control rats received citrate buffer only.
(§2) Eye drops or vehicle were administered twice a day, seven days a week, on the cornea of different groups of rats, with a minimum interval of 7 h between the two treatments. To promote weight gain and limit hyperglycemia, diabetic rats were injected sub-cutaneously with 2 IU ultralente insulin (Humulin, Eli Lilly, Toronto, ON, Canada) three times a week. Animal weights were monitored every week.
Cataract progression was monitored by visual examination, twice a week. A scoring system was devised to evaluate the severity of the cataract. A healthy eye was given a score of 0 (normal level); when a faint pinkish hue was discernable (level 1), cataract formation was in its earliest stage of being visually detected and this stage was given a score of 1. When a white film is clearly detectable (level 2), a score of 2 was assigned. When the film covers the entire eye, but the pupils are still visible (level 3), a score of 3 was assigned, and finally the cataract was considered most severe (score of 4) when the pupil was not detected due to the formation of the white film (level 4).

[7] = Storage stability of the eye drop (HPLC profiles); format: physicochemical; settings: eye drop pH 5.5, one month of storage at 4° C.
Protocol: as §1

[8] = large intravenous dose; cited from earlier work
[9] = Body weight of non-diabetic and diabetic rats; format: in vivo, rat
Protocol: as §2

[10] = target: T1, bovine serum albumin (BSA) with D-ribose; assay: biochemical
Protocol: as §3

dog = settings: intravenous injection, compared with (R,S)-isoproterenol; cited from earlier work
[11] = better than epinephrine; cited from earlier work
[12] = 2.47% instilled to normal human eyes (Bonomi 1964)

T1 sequence (P02769 25-607): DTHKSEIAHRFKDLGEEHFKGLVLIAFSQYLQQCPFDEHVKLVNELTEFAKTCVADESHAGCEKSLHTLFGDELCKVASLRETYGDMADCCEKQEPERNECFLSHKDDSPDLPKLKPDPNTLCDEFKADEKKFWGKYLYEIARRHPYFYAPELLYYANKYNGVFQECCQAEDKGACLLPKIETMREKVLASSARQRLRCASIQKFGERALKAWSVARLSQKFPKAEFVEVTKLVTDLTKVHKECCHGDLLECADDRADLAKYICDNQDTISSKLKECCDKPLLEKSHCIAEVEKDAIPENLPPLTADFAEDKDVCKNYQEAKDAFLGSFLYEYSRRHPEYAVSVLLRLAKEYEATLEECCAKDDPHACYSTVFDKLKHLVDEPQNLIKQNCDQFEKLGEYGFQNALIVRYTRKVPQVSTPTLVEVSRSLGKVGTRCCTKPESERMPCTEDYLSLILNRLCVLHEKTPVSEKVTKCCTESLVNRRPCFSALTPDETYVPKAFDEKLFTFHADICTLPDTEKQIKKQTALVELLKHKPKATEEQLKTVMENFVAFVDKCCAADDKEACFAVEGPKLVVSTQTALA

Compound: CC(C)NCC(O)c1ccc(O)c(O)c1 (centres unmarked) [isoproterenol]
- pKa [1]: 8.72 ± 0.05

Compound: (R)-Epinephrine
- IC50 [2]: 15.5 ± 1.7 µM
- Imax [2]: 83%

Compound: CNCC(O)c1ccc(O)c(O)c1 (racemic) [(R,S)-Epinephrine]
- IC50 [2]: 17 ± 1.1 µM
- Imax [2]: 82%

Compound: NC[C@H](O)c1ccc(O)c(O)c1 [(R)-Norepinephrine]
- IC50 [2]: 39.6 ± 3.4 µM
- Imax [2]: 92%

Compound: CC(C)NC[C@@H](O)c1ccc(O)c(O)c1.Cl [(S)-isoproterenol HCl, (S)-isoproterenol hydrochloride]
- effect on intra-ocular pressure (human eye; topical administration of up to 20%, human eye): did not show any indication to lower intra-ocular pressure
- ocular adverse effects (human eyes; topical administration of 20%, persisted for several hours): marked conjunctival hyperemia and mild miosis

Compound: CC(C)NC[C@@H](O)c1ccc(OC(=O)C(C)(C)C)c(OC(=O)C(C)(C)C)c1.Cl [(S)-isoproterenol dipivalate, (S)-isoproterenol dipivalate hydrochloride]
- concentration with no visibly noticed cytotoxicity [3]: up to 25 mM
- protective effect against H2O2 oxidative stress (PC12 cells [4]): did not show any protective effect
- blood glucose level (Group II, non-diabetic rats receiving prodrug, 27 week period): 5.1 ± 0.4 mM
- blood glucose level (Group IV, diabetic rats receiving prodrug, stabilized level): 27 ± 5 mM
- tolerance of PC12 cells (PC12 cells [5]; longer incubation up to 24 h, minimum media (data not shown)): 500 µM
- concentration PC12 cells were tolerant to (PC12 cells [5]; short incubation up to 2 hr): up to 500 μM
- Time entered in level 4 ([6]; Left eye): 14.5 week and 19.5 week and 19 week (2×) and 16 week and 18.5 week and 20.5 week (2×) and 8 week and 22 week
- Time stayed in level 0 ([6]; Left eye): 8 week (6×) and 9 week (3×) and 14 week and 18 week and >30 week (4×) and >23 week and 12 week
- Time stayed in level 1 ([6]; Left eye): 1 week (4×) and 2.5 week and 2 week (3×) and 0.5 week (2×) and 3 week (2×)
- Time stayed in level 2 ([6]; Left eye): 2 week (5×) and 1 week and 1.5 week (2×) and 0.5 week (2×) and 2.5 week and 5 week
- Time stayed in level 3 ([6]; Left eye): 2.5 week and 7.5 week and 5.5 week and 3 week and 3.5 week and 7 week and 8 week and 4 week and 5 week and 6.5 week
- Time entered in level 4 ([6]; Right eye): 14.5 week and 19.5 week and 19 week (3×) and 15.5 week and 20.5 week (2×) and 8 week and 22 week
- Time stayed in level 0 ([6]; Right eye): 8 week (7×) and 13 week and 18.5 week (2×) and 17 week and >30 week (2×) and 18 week and 14 week and 11.5 week and 12 week
- Time stayed in level 1 ([6]; Right eye): 1 week (7×) and 0.5 week (5×) and 2.5 week and 2 week and 0 week
- Time stayed in level 2 ([6]; Right eye): 2 week (7×) and 0.5 week (2×) and 1.5 week and 1 week (2×) and 5 week and 2.5 week (2×)
- Time stayed in level 3 ([6]; Right eye): 2.5 week and 7.5 week and 7 week (2×) and 4 week (2×) and 3 week and 8 week and 6.5 week (2×)
- Time stayed in level 0 (cataract initiation), Av ± STD [6]: 15.0±8.3 week
- Time stayed in level 0 (cataract initiation), Av ± STD ([6]; listed as drug): >15.0 ± 8.3 week
- Time stayed in level 1, Av ± STD [6]: 1.24 ± 0.82 week
- Time stayed in level 2, Av ± STD [6]: 1.88 ± 1.09 week
- Time stayed in level 3, Av ± STD [6]: 5.4 ± 1.9 week
- Time stayed in level 1, Av ± STD ([6]; listed as prodrug): 1.24±0.82 week
- Time stayed in level 2, Av ± STD ([6]; listed as prodrug): 1.88±1.09 week
- Time stayed in level 3, Av ± STD ([6]; listed as prodrug): 5.4±1.9 week
- percentage of eyes initiating cataract ([6]; eyes initiating at 8.6±1.2 weeks): 53%
- percentage of eyes initiating cataract ([6]; eyes initiating at 17.1±3.1 weeks): 26%
- percentage of eyes initiating cataract ([6]; eyes initiating at >30 weeks (except one eye >23 weeks)): 21%
- time of cataract initiation ([6]; first subgroup, 53% of the eyes): 8.6±1.2 weeks
- time of cataract initiation ([6]; second subgroup, 26% of the eyes): 17.1±3.1 weeks
- time of cataract initiation ([6]; third subgroup, 21% of the eyes): > 30 weeks
- degradation on storage [7]: No degradation

Compound: NC[C@@H](O)c1ccc(O)c(O)c1 [(S)-Norepinephrine]
- IC50 [2]: 40.3 ± 4.7 µM
- Imax [2]: 93%

Compound: CC(C)NCC(O)c1ccc(O)c(O)c1 (racemic) [(R,S)-isoproterenol]
- duration of reduction in ocular tension (human eye; [12]): at least 12 h
- reduction in ocular tension (human eye; [12]): 20%

Compound: CC(C)NC[C@@H](O)c1ccc(O)c(O)c1.O=C(O)C(O)C(O)C(=O)O [(S)-Isoproterenol, (S)-isoproterenol bitartrate]
- effects on blood pressure and pulse rate [8]: only slight and transient effects on blood pressure and pulse rate
- effect on weight gain/loss ([9]; diabetic rats, Group IV vs Group III): no effect
- effect on weight gain/loss ([9]; non-diabetic rats, Group II vs Group I): no effect
- IC50 [2]: 16.8 ± 0.8 µM
- Imax [2]: 81%
- protective effect against H2O2 oxidative stress (PC12 cells [4]): did not show any protective effect
- effect on blood glucose level and diabetes (Groups I vs II and III vs IV): does not affect the blood glucose level
- ocular adverse effects (human eyes; eye drop, 10%, human eyes): only brief mild conjunctival hyperemia and irritation

Compound: CC(C)NC[C@H](O)c1ccc(O)c(O)c1 [(R)-Isoproterenol]
- Imax [2]: 86%
- IC50 [10]: 18.1 ± 1.1 µM

Compound: CC(C)NCC(O)c1ccc(OC(=O)C(C)(C)C)c(OC(=O)C(C)(C)C)c1 (racemic)
- cardiovascular effect (dog): did not produce any unique cardiovascular effect

Compound: CNCC(O)c1ccc(OC(=O)C(C)(C)C)c(OC(=O)C(C)(C)C)c1 (racemic) [Dipivefrin, (R,S)-epinephrine dipivalate]
- enhancement of ocular absorption [11]: 17 time
